From PubChem BioAssay (NCI) come the findings set out here.

Where “and” joins values, the source holds several entries; their conditions need not be identical. Equal entries are not always repeated.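 Tested at 5 concentrations; 48 h exposure; 96-well plates; endpoints linearly interpolated, else capped at highest concentration. GI50: concentration for 50% inhibition of growth. At the TGI there is no net growth.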 Bounds are passed on as bounds.

Assay in all cases: NCI anticancer screen, dose series, 48 h
Assay [1] deals with SN12C renal.
Assay [2] has as its system SNB-19 CNS.
The subject of assay [3] is M14 melanoma.
In assay [4] the test system is UO-31 renal.
Assay [5] has as its system A549 NSCLC.
Assay [6] has as its system HCT-15 colon.
Assay [7] deals with SF-295 CNS.
For assay [8], the system named is CAKI-1 renal.
The subject of assay [9] is MDA-MB-435.
For assay [10], the system named is RPMI-8226 leukemia.

As for `CS(=O)(=O)Nc1ccc2c(c1)oc(=O)c1ccccc12`, the TGI in assay [1], in assay [2], in assay [3], in assay [4], in assay [5] and in assay [6] was greater than 100 µM each time. Besides, the TGI in assay [7], in assay [8], in assay [9] and in assay [10] was greater than 100 µM each time.
For the molecule `CC(C)=CCNc1ncnc2c1ncn2C1OC(CO)C(O)C1O` (configuration not stated), the GI50 in assay [1] is 1.36 µM; in [2] it was 3.81 µM; in assay [3], 2.85 µM; in assay [4], 6.94 µM; in assay [5], 2.85 µM; in assay [6], 1.05 µM. In addition, the GI50 is 0.671 µM in [7], 0.721 µM in [8], 3.26 µM in assay [9] and 2.91 µM in assay [10]. In addition, the TGI in [1] is greater than 408 µM; in [2] it was greater than 201 µM; in assay [3], greater than 766 µM; in assay [4], 50 µM; in assay [5], 299 µM; in assay [6], 36.8 µM. Also, the TGI is 2.6 µM in [7], 4.74 µM in assay [8], greater than 1000 µM in [9] and 25.2 µM in assay [10].
Turning to `CC(C)=CC/C=C(/C)[C@H]1CC[C@]2(C)[C@@H]1CC[C@@H]1[C@@]3(C)CCCNC(C)(C)[C@@H]3CC[C@]12C`, the GI50 was 2.3 µM in assay [1]; 3.39 µM in assay [2]; 3.46 µM in assay [3]; 10.1 µM in [4]; 2.15 µM in [5]; 1.89 µM in assay [6]. Moreover, the GI50 in assay [7] is 2 µM; in [8], 1.85 µM; in assay [9], 1.83 µM; in [10] it was 2.12 µM. For the same molecule, the TGI in assay [1] is 5.45 µM; in assay [2], 11.6 µM; in assay [3] it was 13.8 µM; in assay [4], 23.4 µM; in [5], 4.88 µM; in assay [6], 3.56 µM. Also, the TGI in assay [7] came out at 3.83 µM; in assay [8], 3.93 µM; in assay [9], 3.49 µM; in assay [10] it was 4.97 µM.
For `CC(O)CCC(=O)c1ccoc1` (configuration not stated), the TGI in assay [1] was 9930 µM; in assay [2], greater than 10000 µM; in [3], greater than 10000 µM; in assay [4] it was 9120 µM; in assay [5], greater than 7450 µM; in assay [6] it was greater than 10000 µM. Also, the TGI was greater than 10000 µM in assay [7], 3930 µM in assay [8], greater than 10000 µM in [9] and 7900 µM in assay [10].
Take `O=C(OC(CNc1cc(=O)n(Cc2ccccc2)c(=O)n1Cc1ccccc1)CN1CCCC1)c1ccccc1` (configuration not stated): the GI50 in assay [1], in assay [2], in [3], in assay [4], in assay [5] and in assay [6] was greater than 100 µM each time. The GI50 is greater than 100 µM in [7], greater than 100 µM in [8], greater than 100 µM in assay [9] and 29.3 µM in [10]. Moreover, the TGI in assay [1], in assay [2], in assay [3], in [4], in assay [5] and in [6] was greater than 100 µM each time. Moreover, the TGI in assay [7], in assay [8], in assay [9] and in assay [10] was greater than 100 µM throughout.
In the case of `NC(=O)NC1C(c2ccccc2)=C1c1ccccc1`, the TGI is 35.4 µM in [1]; greater than 100 µM in [2]; 39.4 µM in assay [3]; 28.8 µM in assay [4]; 74.6 µM in assay [5]; 32.4 µM in assay [6]. Besides, the TGI was 54.6 µM in assay [7], greater than 100 µM in assay [8], 40.3 µM in [9] and 45.4 µM in [10].
Regarding `Cc1ccc(C)c(C2=C(c3cn(C)c4ccccc34)C(=O)NC2=O)c1`, the GI50 was greater than 25 µM in assay [1]; greater than 25 µM in [2]; greater than 25 µM in assay [3]; 13.4 µM in assay [4]; 18.9 µM in assay [5]; 9.33 µM in assay [6]. For the same molecule, the GI50 is 4.4 µM in assay [7], greater than 23.4 µM in assay [8], 24 µM in assay [9] and greater than 22 µM in [10]. In addition, the TGI in [1], in assay [2], in assay [3], in assay [4], in assay [5] and in [6] was greater than 25 µM throughout. Further, the TGI in [7] was greater than 19.4 µM; in assay [8], greater than 25 µM; in assay [9] it was greater than 25 µM; in assay [10], greater than 25 µM.
For `O=C1/C(=C/c2ccc(Br)cc2)COc2ccc(O)c(O)c21`, the GI50 was 0.617 µM in [1]; 1.38 µM in [2]; 1.41 µM in [3]; 0.307 µM in [4]; 1.77 µM in assay [5]; 0.302 µM in assay [6]. For the same molecule, the GI50 in [7] is 2.57 µM; in assay [8] it was 0.944 µM; in [9] it was 0.427 µM; in assay [10], 0.221 µM. Further, the TGI in [1] stood at 2.32 µM; in [2], 3.05 µM; in assay [3] it was 3.47 µM; in assay [4], 1.07 µM; in [5], 6.77 µM; in [6] it was 1.51 µM. Besides, the TGI in assay [7] was 6.83 µM; in assay [8], 2.25 µM; in assay [9], 1.59 µM; in assay [10] it was 1.02 µM.
For `C=COCCCOc1ccccc1`, the TGI in assay [1], in assay [2], in assay [3], in assay [4], in assay [5] and in assay [6] was greater than 100 µM in each case. In addition, the TGI in assay [7], in assay [8], in assay [9] and in assay [10] was greater than 100 µM each time. Also, the GI50 in assay [7] and in assay [9] was greater than 100 µM in each case.
With `CCN1CCN(C(c2ccc(C(F)(F)F)cc2)c2ccc3cccnc3c2O)CC1` (configuration not stated), the GI50 is 2.27 µM in [1]; 1.51 µM in [2]; 1.7 µM in assay [3]; 1.59 µM in assay [4]; 1.31 µM in assay [5]; 3.74 µM in assay [6]. The GI50 in assay [7] is 0.313 µM; in assay [8], 2.55 µM; in [9], 3.76 µM; in assay [10], 0.798 µM. The TGI in assay [1] turned out to be 15.3 µM; in assay [2] it was 19.8 µM; in [3] it was 5.87 µM; in assay [4], 9.04 µM; in [5] it was 12.1 µM; in assay [6] it was 17.6 µM. Moreover, the TGI stood at 4.39 µM in assay [7], 9.36 µM in assay [8], 17.8 µM in assay [9] and 16.7 µM in assay [10].
Take `O/N=C/C1C(OCc2ccccc2)C(OCc2ccccc2)C(OCc2ccccc2)CN1Cc1ccccc1` (configuration not stated): the GI50 in assay [1] is 20.6 µM and 4.32 µM; in assay [3] it was 11.7 µM and 5.68 µM; in assay [4], 20 µM and 5.22 µM; in assay [6], 25.7 µM and 9.77 µM; in assay [9], 14.1 µM and 3.14 µM. Moreover, the TGI was 62 µM and > 100 µM in [1]; greater than 100 µM in assay [2]; 40.3 µM and > 100 µM in assay [3]; 65.9 µM and > 100 µM in [4]; 25 µM and > 100 µM in assay [5]; greater than 100 µM in [6]. Further, the TGI is 29.5 µM and > 100 µM in assay [7]; greater than 100 µM in assay [8]; 33.6 µM and 27.1 µM in assay [9]; greater than 100 µM in assay [10].
Turning to `S=C1NC2(CCCCCC2)NN1c1ccccc1`, the TGI in assay [1], in [2], in [3], in assay [4], in [5] and in assay [6] was greater than 100 µM each time. The TGI in assay [7], in assay [8], in assay [9] and in [10] was greater than 100 µM throughout.
Consider `CCCCCCCCCCCCOC1C(C(COC2OC(C3COC(C)(C)O3)C3OC(C)(C)OC23)NC(=O)Nc2ccc(C(=O)O)cc2)OC2OC(C)(C)OC21` (configuration not stated), for which the GI50 in assay [1] is 3.45 µM; in assay [2], 4.41 µM; in assay [3], 2.45 µM; in assay [4], 3.99 µM; in assay [5] it was 3.34 µM; in assay [6], 2.63 µM. The GI50 in assay [7] is 2.15 µM; in assay [8], 5.45 µM; in assay [9] it was 2.63 µM; in assay [10], 1.69 µM. The TGI in assay [1] was found to be 12.4 µM; in assay [2] it was 14.6 µM; in assay [3] it was 6.71 µM; in assay [4], 13.3 µM; in assay [5], 10.9 µM; in [6], 6.7 µM. Further, the TGI turned out to be 5.69 µM in assay [7], 17.6 µM in assay [8], 7.91 µM in assay [9] and 4.29 µM in assay [10].
As for `Cn1nc(N)c2cc([C@@H]3Nc4ccc5[nH]ncc5c4[C@H]4C5CCC(C5)[C@@H]34)ccc21` (some centres not stated), the GI50 in assay [1] is 0.612 µM; in assay [2], 2.34 µM; in [3], 0.372 µM; in [4], 0.831 µM; in [5], 0.699 µM; in assay [6], 0.425 µM. Further, the GI50 was 0.32 µM in assay [7], 0.334 µM in assay [8], 0.166 µM in assay [9] and 0.36 µM in assay [10]. Also, the TGI in assay [1] is 21.2 µM; in [2], 34.8 µM; in assay [3], 9.98 µM; in assay [4] it was 40.8 µM; in assay [5], greater than 100 µM; in assay [6], 14 µM. The TGI amounted to 11.7 µM in assay [7], 33.4 µM in assay [8], 0.437 µM in assay [9] and 3.69 µM in assay [10].
As for `C=C(CNCc1ccccc1)c1ccc(C(=O)Nc2ccccc2N)cc1`, the GI50 was 0.583 µM in [1]; 16.4 µM in assay [2]; 29.8 µM in assay [3]; 3.64 µM in assay [4]; 7.34 µM in [5]; 36.5 µM in [6]. For the same molecule, the GI50 is 7.28 µM in assay [7], 5.35 µM in assay [8], 5.24 µM in assay [9] and 3.08 µM in [10]. For the same molecule, the TGI in assay [1] is 14.8 µM; in assay [2], 78.5 µM; in assay [3], greater than 100 µM; in [4], 18.2 µM; in assay [5], greater than 100 µM; in [6], greater than 100 µM. The TGI in assay [7] was 37 µM; in [8], 32.5 µM; in [9], 27.7 µM; in [10] it was greater than 100 µM.
For `CCC(C)n1ncn(-c2ccc(N3CCN(c4ccc(OCC5COC(Cn6cncn6)(c6ccc(Cl)cc6Cl)O5)cc4)CC3)cc2)c1=O` (configuration not stated), the GI50 in assay [1] was greater than 100 µM; in assay [2] it was 38.9 µM; in assay [3], 5.91 µM; in assay [4], 30 µM; in [5] it was 35.8 µM; in [6] it was 15.3 µM. For the same molecule, the GI50 in [7] is 1.4 µM; in assay [8], 2.88 µM; in [9] it was greater than 100 µM; in assay [10], 0.973 µM. The TGI in [1], in assay [2], in assay [3], in assay [4], in assay [5] and in [6] was greater than 100 µM in each case. Moreover, the TGI in assay [7], in assay [8], in assay [9] and in [10] was greater than 100 µM in each case.
Consider `COc1cc(C2CC(c3cccc(Br)c3)=NN2C(C)=O)cc(OC)c1OC` (configuration not stated), for which the GI50 was 2.76 µM in [1]; 0.514 µM in assay [2]; 0.555 µM in [3]; 3.33 µM in [4]; 0.635 µM in assay [5]; 0.328 µM in assay [6]. Further, the GI50 in [7] is 0.238 µM; in assay [8], 0.282 µM; in [9], 0.0514 µM; in assay [10] it was 0.181 µM. Moreover, the TGI in assay [1] was greater than 81.4 µM; in assay [2], greater than 100 µM; in assay [3] it was 50.2 µM; in assay [4], greater than 65.6 µM; in [5], greater than 100 µM; in assay [6], 29.5 µM. For the same molecule, the TGI in [7] is 16.3 µM; in assay [8], 54.1 µM; in assay [9], 0.297 µM; in [10], 0.67 µM.
